Legend:
Assay in all cases: cells
COLO-824 = format: functional, cell-based, Homo sapiens; settings: Homo sapiens, COLO-824
Description: SANGER: Inhibition of human COLO-824 cell growth in a cell viability assay.

D283 Med = format: functional, cell-based, Homo sapiens; settings: Homo sapiens, D283 Med
Description: SANGER: Inhibition of human D-283MED cell growth in a cell viability assay.

DU-4475 = format: functional, cell-based, Homo sapiens; settings: Homo sapiens, DU-4475
Description: SANGER: Inhibition of human DU-4475 cell growth in a cell viability assay.

ES1 = format: functional, cell-based, Homo sapiens; settings: Homo sapiens, ES1
ES8 = format: functional, cell-based, Homo sapiens; settings: Homo sapiens, ES8
Description: SANGER: Inhibition of human ES8 cell growth in a cell viability assay.

ETK-1 = format: functional, cell-based, Homo sapiens; settings: Homo sapiens, ETK-1
Description: SANGER: Inhibition of human ETK-1 cell growth in a cell viability assay.

EW-13 = format: functional, cell-based, Homo sapiens; settings: Homo sapiens, EW-13
Description: SANGER: Inhibition of human EW-13 cell growth in a cell viability assay.

EW-3 = format: functional, cell-based, Homo sapiens; settings: Homo sapiens, EW-3
Description: SANGER: Inhibition of human EW-3 cell growth in a cell viability assay.

EOL1 = format: functional, cell-based, Homo sapiens; settings: Homo sapiens, EOL1
GB-1 = format: functional, cell-based, Homo sapiens; settings: Homo sapiens, GB-1
Description: SANGER: Inhibition of human GB-1 cell growth in a cell viability assay.

HCE-T = format: functional, cell-based, Homo sapiens; settings: Homo sapiens, HCE-T
Description: SANGER: Inhibition of human HCE-T cell growth in a cell viability assay.

HDLM-2 = format: functional, cell-based, Homo sapiens; settings: Homo sapiens, HDLM-2
Description: SANGER: Inhibition of human HDLM-2 cell growth in a cell viability assay.

HT = format: functional, cell-based, Homo sapiens; settings: Homo sapiens, HT
JVM-3 = format: functional, cell-based, Homo sapiens; settings: Homo sapiens, JVM-3
Description: SANGER: Inhibition of human JVM-3 cell growth in a cell viability assay.

KALS-1 = format: functional, cell-based, Homo sapiens; settings: Homo sapiens, KALS-1
Description: SANGER: Inhibition of human KALS-1 cell growth in a cell viability assay.

KU812 cell line = format: functional, cell-based, Homo sapiens; settings: Homo sapiens, KU812
Description: SANGER: Inhibition of human KU812 cell growth in a cell viability assay.

LS-123 = format: functional, cell-based, Homo sapiens; settings: Homo sapiens, LS-123
Description: SANGER: Inhibition of human LS-123 cell growth in a cell viability assay.

LS-513 = format: functional, cell-based, Homo sapiens; settings: Homo sapiens, LS-513
Description: SANGER: Inhibition of human LS-513 cell growth in a cell viability assay.

MC116 = format: functional, cell-based, Homo sapiens; settings: Homo sapiens, MC116
Description: SANGER: Inhibition of human MC116 cell growth in a cell viability assay.

ML-2 = format: functional, cell-based, Homo sapiens; settings: Homo sapiens, ML-2
Description: SANGER: Inhibition of human ML-2 cell growth in a cell viability assay.

MMAC-SF = format: functional, cell-based; settings: Homo sapiens
MZ1-PC = format: functional, cell-based, Homo sapiens; settings: Homo sapiens, MZ1-PC
NCI-H1155 = format: functional, cell-based, Homo sapiens; settings: Homo sapiens, NCI-H1155
Description: SANGER: Inhibition of human NCI-H1155 cell growth in a cell viability assay.

NCI-H1395 = format: functional, cell-based, Homo sapiens; settings: Homo sapiens, NCI-H1395
Description: SANGER: Inhibition of human NCI-H1395 cell growth in a cell viability assay.

NCI-H1648 = format: functional, cell-based, Homo sapiens; settings: Homo sapiens, NCI-H1648
Description: SANGER: Inhibition of human NCI-H1648 cell growth in a cell viability assay.

NCI-H82 = format: functional, cell-based, Homo sapiens; settings: Homo sapiens, NCI-H82
Description: SANGER: Inhibition of human NCI-H82 cell growth in a cell viability assay.

RKO = format: functional, cell-based, Homo sapiens; settings: Homo sapiens, RKO
Ramos-2G6-4C10 = format: functional, cell-based, Homo sapiens; settings: Homo sapiens, Ramos-2G6-4C10
Description: SANGER: Inhibition of human Ramos-2G6-4C10 cell growth in a cell viability assay.

SBC-1 = format: functional, cell-based, Homo sapiens; settings: Homo sapiens, SBC-1
Description: SANGER: Inhibition of human SBC-1 cell growth in a cell viability assay.

SF-126 = format: functional, cell-based, Homo sapiens; settings: Homo sapiens, SF-126
SF-268 = format: functional, cell-based, Homo sapiens; settings: Homo sapiens, SF-268
Description: SANGER: Inhibition of human SF268 cell growth in a cell viability assay.

SH-4 = format: functional, cell-based; settings: Homo sapiens
SK-MEL-1 = format: functional, cell-based, Homo sapiens; settings: Homo sapiens, SK-MEL-1
Description: SANGER: Inhibition of human SK-MEL-1 cell growth in a cell viability assay.

SW684 = format: functional, cell-based, Homo sapiens; settings: Homo sapiens, SW684
SW 954 = format: functional, cell-based, Homo sapiens; settings: Homo sapiens, SW 954
Description: SANGER: Inhibition of human SW954 cell growth in a cell viability assay.

A101D = format: functional, cell-based, Homo sapiens; settings: Homo sapiens, A101D
Description: SANGER: Inhibition of human A101D cell growth in a cell viability assay.

A388 = format: functional, cell-based; settings: Homo sapiens
Description: SANGER: Inhibition of human A388 cell growth in a cell viability assay.

A498 = format: functional, cell-based, Homo sapiens; settings: Homo sapiens, A498
Description: SANGER: Inhibition of human A498 cell growth in a cell viability assay.

A704 = format: functional, cell-based; settings: Homo sapiens
Description: SANGER: Inhibition of human A704 cell growth in a cell viability assay.

ACN = format: functional, cell-based, Homo sapiens; settings: Homo sapiens, ACN
Description: SANGER: Inhibition of human ACN cell growth in a cell viability assay.

ATN-1 = format: functional, cell-based, Homo sapiens; settings: Homo sapiens, ATN-1
Description: SANGER: Inhibition of human ATN-1 cell growth in a cell viability assay.

BB30-HNC = format: functional, cell-based, Homo sapiens; settings: Homo sapiens, BB30-HNC
Description: SANGER: Inhibition of human BB30-HNC cell growth in a cell viability assay.

BE-13 = format: functional, cell-based, Homo sapiens; settings: Homo sapiens, BE-13
Description: SANGER: Inhibition of human BE-13 cell growth in a cell viability assay.

Becker = format: functional, cell-based, Homo sapiens; settings: Homo sapiens, Becker
Description: SANGER: Inhibition of human Becker cell growth in a cell viability assay.

C2BBe1 = format: functional, cell-based, Homo sapiens; settings: Homo sapiens, C2BBe1
Description: SANGER: Inhibition of human C2BBe1 cell growth in a cell viability assay.

TE-11 = format: functional, cell-based; settings: Homo sapiens
Description: SANGER: Inhibition of human TE-11 cell growth in a cell viability assay.

TE-12 = format: functional, cell-based, Homo sapiens; settings: Homo sapiens, TE-12
Description: SANGER: Inhibition of human TE-12 cell growth in a cell viability assay.

TK-10 = format: functional, cell-based, Homo sapiens; settings: Homo sapiens, TK-10
CAS-1 = format: functional, cell-based, Homo sapiens; settings: Homo sapiens, CAS-1
COLO-684 = format: functional, cell-based, Homo sapiens; settings: Homo sapiens, COLO-684

## Cc1ccc(NC(=O)c2ccc(CN3CCN(C)CC3)cc2)cc1Nc1nccc(-c2cccnc2)n1 [IMATINIB]
COLO-824
  IC50: > 2 µM
D283 Med
  IC50: > 2 µM
DU-4475
  IC50: > 2 µM
ES1
  IC50: > 2 µM
ES8
  IC50: > 2 µM
ETK-1
  IC50: > 2 µM
EW-13
  IC50: > 2 µM
EW-3
  IC50: > 2 µM
EOL1
  IC50: > 2 µM
GB-1
  IC50: > 2 µM
HCE-T
  IC50: > 2 µM
HDLM-2
  IC50: > 2 µM
HT
  IC50: > 2 µM
JVM-3
  IC50: > 2 µM
KALS-1
  IC50: > 2 µM
KU812 cell line
  IC50: > 2 µM
LS-123
  IC50: > 2 µM
LS-513
  IC50: > 2 µM
MC116
  IC50: > 2 µM
ML-2
  IC50: > 2 µM
MMAC-SF
  IC50: > 2 µM
MZ1-PC
  IC50: > 2 µM
NCI-H1155
  IC50: > 2 µM
NCI-H1395
  IC50: > 2 µM
NCI-H1648
  IC50: > 2 µM
NCI-H82
  IC50: > 2 µM
RKO
  IC50: > 2 µM
Ramos-2G6-4C10
  IC50: > 2 µM
SBC-1
  IC50: > 2 µM
SF-126
  IC50: > 2 µM
SF-268
  IC50: > 2 µM
SH-4
  IC50: > 2 µM
SK-MEL-1
  IC50: > 2 µM
SW684
  IC50: > 2 µM
SW 954
  IC50: > 2 µM
A101D
  IC50: > 2 µM
A388
  IC50: > 2 µM
A498
  IC50: > 2 µM
A704
  IC50: > 2 µM
ACN
  IC50: > 2 µM
ATN-1
  IC50: > 2 µM
BB30-HNC
  IC50: > 2 µM
BE-13
  IC50: > 2 µM
Becker
  IC50: > 2 µM
C2BBe1
  IC50: > 2 µM
TE-11
  IC50: > 2 µM
TE-12
  IC50: > 2 µM
TK-10
  IC50: > 2 µM
CAS-1
  IC50: > 2 µM
COLO-684
  IC50: > 2 µM

## CCCCCCCCCCCC1=C(O)C(=O)C=C(O)C1=O [EMBELIN]
COLO-824
  IC50: > 32 µM
D283 Med
  IC50: 14.7 µM
DU-4475
  IC50: 13.2 µM
ES1
  IC50: 7.81 µM
ES8
  IC50: 14 µM
ETK-1
  IC50: 9.75 µM
EW-13; read-out: IC50
  IC50: 9.67 µM
EW-3
  IC50: > 32 µM
EOL1
  IC50: 6.73 µM
GB-1
  IC50: 5.23 µM
HCE-T
  IC50: 13.1 µM
HDLM-2
  IC50: 17.2 µM
HT
  IC50: 5.51 µM
JVM-3
  IC50: > 32 µM
KALS-1; read-out: IC50
  IC50: 14.9 µM
KU812 cell line
  IC50: > 32 µM
LS-123
  IC50: 9.42 µM
LS-513
  IC50: > 32 µM
MC116
  IC50: 2.82 µM
ML-2
  IC50: 12.4 µM
MMAC-SF
  IC50: 26.8 µM
MZ1-PC
  IC50: 5.71 µM
NCI-H1155
  IC50: > 32 µM
NCI-H1395
  IC50: > 32 µM
NCI-H1648
  IC50: 9.3 µM
NCI-H82
  IC50: > 32 µM
RKO
  IC50: 2.01 µM
Ramos-2G6-4C10
  IC50: 17 µM
SBC-1
  IC50: 28.5 µM
SF-126
  IC50: 10.3 µM
SF-268
  IC50: 7.9 µM
SH-4
  IC50: 24.9 µM
SK-MEL-1
  IC50: > 32 µM
SW684; read-out: IC50
  IC50: > 32 µM
SW 954
  IC50: 31.1 µM
A101D
  IC50: 6.37 µM
A388
  IC50: 6.7 µM
A498
  IC50: > 32 µM
A704
  IC50: 10.9 µM
ACN
  IC50: 5.86 µM
ATN-1
  IC50: > 32 µM
BB30-HNC
  IC50: 5.06 µM
BE-13
  IC50: 22.9 µM
Becker
  IC50: 15.8 µM
C2BBe1
  IC50: 13.9 µM
TE-11
  IC50: > 32 µM
TE-12
  IC50: 14.4 µM
TK-10
  IC50: > 32 µM
CAS-1
  IC50: 15.3 µM
COLO-684
  IC50: 20.6 µM

## OC[C@H](Cc1ccccc1)Nc1nc(Oc2ccc3c(c2)CCC3)nc2c1ncn2Cc1ccc(-c2ccccc2)cc1
COLO-824
  IC50: > 10.2 µM
D283 Med
  IC50: > 10.2 µM
DU-4475
  IC50: 1.63 µM
ES1
  IC50: 1.38 µM
ES8
  IC50: > 10.2 µM
ETK-1
  IC50: > 10.2 µM
EW-13; read-out: IC50
  IC50: 0.413 µM
EW-3
  IC50: > 10.2 µM
EOL1
  IC50: 1.88 µM
GB-1
  IC50: 5.25 µM
HCE-T
  IC50: > 10.2 µM
HDLM-2
  IC50: > 10.2 µM
HT
  IC50: > 10.2 µM
JVM-3
  IC50: > 10.2 µM
KALS-1; read-out: IC50
  IC50: > 10.2 µM
KU812 cell line
  IC50: 0.637 µM
LS-123
  IC50: 9.49 µM
LS-513
  IC50: > 10.2 µM
MC116
  IC50: > 10.2 µM
ML-2
  IC50: > 10.2 µM
MMAC-SF
  IC50: > 10.2 µM
MZ1-PC
  IC50: 6.97 µM
NCI-H1155
  IC50: > 10.2 µM
NCI-H1395
  IC50: > 10.2 µM
NCI-H1648
  IC50: > 10.2 µM
NCI-H82
  IC50: > 10.2 µM
RKO
  IC50: 3.37 µM
Ramos-2G6-4C10
  IC50: 7.65 µM
SBC-1
  IC50: > 10.2 µM
SF-126
  IC50: > 10.2 µM
SF-268
  IC50: > 10.2 µM
SH-4
  IC50: > 10.2 µM
SK-MEL-1
  IC50: > 10.2 µM
SW684; read-out: IC50
  IC50: 8.52 µM
SW 954
  IC50: > 10.2 µM
A101D
  IC50: > 10.2 µM
A388
  IC50: > 10.2 µM
A498
  IC50: > 10.2 µM
A704
  IC50: > 10.2 µM
ACN
  IC50: 6.01 µM
ATN-1
  IC50: > 10.2 µM
BB30-HNC
  IC50: 3.92 µM
BE-13
  IC50: > 10.2 µM
Becker
  IC50: > 10.2 µM
C2BBe1
  IC50: > 10.2 µM
TE-11
  IC50: > 10.2 µM
TE-12
  IC50: > 10.2 µM
TK-10
  IC50: > 10.2 µM
CAS-1
  IC50: > 10.2 µM
COLO-684
  IC50: > 10.2 µM

Source: ChEMBL document CHEMBL1201861, “Genomics of Drug Sensitity in Cancer screening data, Wellcome Trust Sanger Institute”
